Calls of active or inactive are those of the source. No cut-off for these calls is given here.
Key:
[1] = Neurotoxicity in human SH-SY5Y cells assessed as reduction in cell population at 80 uM incubated for 24 hrs by MTT assay
SH-SY5Y = assay: Neuroprotective activity against amyloid-beta(1 to 42) induced oxidative stress in differentiated human SH-SY5Y cells assessed as increase in cell viability at 40 uM preincubated with amyloid-beta (1 to 42 ) for 24 hrs followed by compound addition and measured after 72 hrs by MTT assay relative to control; type: functional
Rattus norvegicus = assay: Reversal of amyloid beta (1 to 42 residues) induced cognitive impairment in Wistar rat assessed as decrease in amyloid level in CA1 region of hippocampus at 10 mg/kg, po pretreated with amyloid beta for 7 days followed by compound administration for 9 days and measured after 5 days by immuno histochemical analysis; type: functional, organism-based; conditions: time 14.0 day
[2] = Toxicity in wildtype Oregon R-positive Drosophila assessed as eclosion at 50 uM pretreated for 5 days and measured for 15 days relative to control; conditions: 480 h, time 20 day
[3] = Acute toxicity in Wistar rat assessed as effect on cardiac muscle at 500 to 1000 mg/kg, po administered for 14 days by histopathological analysis; type: organism-based; conditions: in vivo, 336 h, dose 500-1000 mg/kg, time 14 day
[4] = Acute toxicity in Wistar rat assessed as maximum tolerated dose administered orally for 14 days; conditions: in vivo, route po, time 14 day

## COc1cc(NC(=O)Cn2nc(-c3ccccc3)c(-c3ccccc3)nc2=O)cc(OC)c1
[1]
  Activity: Non-Toxic
SH-SY5Y
  Activity: 82%
Rattus norvegicus
  Activity: Active
[2]
  Activity: 25%
[3]
  Activity: Non-Toxic
[4]
  MTD at 336 h: 1000 mg/kg

Reference: ChEMBL document CHEMBL5500364, “Design, synthesis, and biological evaluation of some 2-(3-oxo-5,6-diphenyl-1,2,4-triazin-2(3H)-yl)-N-phenylacetamide hybrids as MTDLs for Alzheimer's disease therapy” (Eur J Med Chem, 2024)
